Calls of active or inactive are those of the source.
Legend:
Cytochrome P450 2C19 = Cytochrome P450 2C19 (Homo sapiens, UniProt P33261); test: Cytochrome panel assay with activity outcomes. Panel member name: p450-cyp2c19 Compounds with AC50 equal or less than 10 uM are considered active; assay type: functional
[1] = Luminescence Cell-Based Dose Retest to Confirm Inhibitors of Cancer Stem Cells. [Related pubchem assays (depositor defined):AID2717, AID2721]; assay type: functional; conditions: Homo sapiens
Cytochrome P450 2D6 = Cytochrome P450 2D6 (Homo sapiens, UniProt P10635);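 also: CYP2D6 member of a cytochrome P450 panel assay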
Cytochrome P450 3A4 = Cytochrome P450 3A4 (Homo sapiens, UniProt P08684);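 also: CYP3A4 tested as one member of a cytochrome P450 panel screen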
[2] = Trypanosoma cruzi growth suppression in host cells – NIH3T3 host cells, beta-gal luminescence, confirmation (AID 2044); assay type: functional, cell-based;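 also: intracellular parasites grown in NIH/3T3 mouse fibroblasts as host cells; luminescent beta-galactosidase reporter signal from transgenic T. cruzi replicating inside host cells; inhibitors lower the luminescence signal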
[3] = NIH3T3 cell viability loss – ATP luminescence, mouse fibroblasts, counter-screen, dose response (AID 2010); assay type: functional, cell-based;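 also: cells exposed to compound for about 90 hours before reading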
INS1 = test: INS-1E survival protection against cytokine death – cell-based, luminescence, retest, dose response (AID 449756); assay type: functional; conditions: Rattus norvegicus;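 also: cell death triggered by IL-1 beta plus TNF-alpha plus IFN-gamma mixture; protective hits raise ATP signal compared with cytokine alone wells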
[4] = molecular target: T1, Rac GTPase-activating protein 1 (Homo sapiens, UniProt Q9H0H5); test: blockers of MgcRacGAP-driven Rac1 GTP hydrolysis – biochemical, ADP Hunter fluorescence, primary and confirmatory, confirmation (AID 624330); assay type: functional
T1 sequence (Q9H0H5 whole entry): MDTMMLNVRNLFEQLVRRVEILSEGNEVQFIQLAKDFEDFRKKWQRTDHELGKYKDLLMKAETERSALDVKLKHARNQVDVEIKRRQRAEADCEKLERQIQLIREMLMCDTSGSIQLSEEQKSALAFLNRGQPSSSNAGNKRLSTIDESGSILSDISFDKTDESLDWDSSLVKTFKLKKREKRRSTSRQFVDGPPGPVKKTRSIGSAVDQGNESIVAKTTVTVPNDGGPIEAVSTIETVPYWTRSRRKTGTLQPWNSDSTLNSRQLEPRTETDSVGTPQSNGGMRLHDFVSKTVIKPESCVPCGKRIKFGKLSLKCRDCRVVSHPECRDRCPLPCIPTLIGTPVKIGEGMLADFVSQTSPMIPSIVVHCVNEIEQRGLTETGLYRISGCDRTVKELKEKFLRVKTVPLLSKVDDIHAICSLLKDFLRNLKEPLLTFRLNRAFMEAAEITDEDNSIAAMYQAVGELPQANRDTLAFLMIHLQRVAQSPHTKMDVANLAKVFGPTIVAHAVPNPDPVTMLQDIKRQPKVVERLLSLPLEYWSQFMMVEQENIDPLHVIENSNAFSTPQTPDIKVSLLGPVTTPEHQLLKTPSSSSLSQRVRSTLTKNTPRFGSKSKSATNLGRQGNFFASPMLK

Sequence of Cytochrome P450 3A4 (P08684 whole entry): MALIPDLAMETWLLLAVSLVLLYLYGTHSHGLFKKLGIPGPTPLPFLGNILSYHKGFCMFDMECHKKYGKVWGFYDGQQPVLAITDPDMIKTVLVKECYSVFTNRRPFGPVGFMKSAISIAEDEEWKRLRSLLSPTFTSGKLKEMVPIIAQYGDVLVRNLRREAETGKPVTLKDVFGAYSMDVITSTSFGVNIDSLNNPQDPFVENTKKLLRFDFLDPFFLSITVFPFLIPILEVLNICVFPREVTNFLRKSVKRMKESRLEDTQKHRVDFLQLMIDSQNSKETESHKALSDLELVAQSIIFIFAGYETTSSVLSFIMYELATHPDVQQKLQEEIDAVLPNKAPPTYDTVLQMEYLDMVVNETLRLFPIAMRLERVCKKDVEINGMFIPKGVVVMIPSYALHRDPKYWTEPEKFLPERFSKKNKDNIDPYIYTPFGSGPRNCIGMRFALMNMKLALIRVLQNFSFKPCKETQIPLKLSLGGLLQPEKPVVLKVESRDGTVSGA
Sequence of Cytochrome P450 2C19 (P33261 whole entry): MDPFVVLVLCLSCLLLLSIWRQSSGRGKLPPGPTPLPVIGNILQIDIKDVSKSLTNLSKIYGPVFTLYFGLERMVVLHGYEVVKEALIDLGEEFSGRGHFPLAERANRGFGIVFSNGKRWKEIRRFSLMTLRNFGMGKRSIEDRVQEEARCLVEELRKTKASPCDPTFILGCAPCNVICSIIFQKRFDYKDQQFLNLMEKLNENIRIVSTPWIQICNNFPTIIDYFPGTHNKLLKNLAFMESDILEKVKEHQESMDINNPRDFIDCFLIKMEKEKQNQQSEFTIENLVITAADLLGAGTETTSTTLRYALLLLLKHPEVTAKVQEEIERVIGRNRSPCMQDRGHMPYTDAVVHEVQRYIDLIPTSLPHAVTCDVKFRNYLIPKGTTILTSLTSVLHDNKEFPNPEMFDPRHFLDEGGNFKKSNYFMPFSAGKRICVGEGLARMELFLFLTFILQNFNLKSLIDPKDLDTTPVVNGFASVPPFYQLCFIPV
Sequence of Cytochrome P450 2D6 (P10635 whole entry): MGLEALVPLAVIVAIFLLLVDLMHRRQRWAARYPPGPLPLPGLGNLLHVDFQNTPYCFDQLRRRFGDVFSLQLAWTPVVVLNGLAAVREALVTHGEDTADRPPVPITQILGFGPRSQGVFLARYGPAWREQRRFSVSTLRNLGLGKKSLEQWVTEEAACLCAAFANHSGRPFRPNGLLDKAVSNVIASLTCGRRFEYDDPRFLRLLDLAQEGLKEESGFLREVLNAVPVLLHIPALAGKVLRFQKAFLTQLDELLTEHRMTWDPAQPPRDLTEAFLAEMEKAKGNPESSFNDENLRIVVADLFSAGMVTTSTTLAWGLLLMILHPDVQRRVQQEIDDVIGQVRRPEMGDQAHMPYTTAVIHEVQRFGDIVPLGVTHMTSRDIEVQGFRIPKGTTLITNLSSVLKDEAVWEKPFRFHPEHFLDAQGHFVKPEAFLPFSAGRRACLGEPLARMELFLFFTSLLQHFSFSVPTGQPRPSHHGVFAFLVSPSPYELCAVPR

CN(C)C(=O)c1ccc(-c2ccc3ncnc(Nc4ccc(F)cc4)c3c2)cc1
AC50 (Cytochrome P450 2C19; read-out: AC50): 25.1 µM (inconclusive)

O=C(CN1CCN(c2ccc(O)cc2)CC1)Nc1ccc(SC(F)F)cc1
AC50 [1]: 6.49 µM (active)

CN(C)c1ccc(-c2nccc(NCCN3CCOCC3)n2)cc1
AC50 (Cytochrome P450 2D6): 39.8 µM (inconclusive)
AC50 (Cytochrome P450 2C19; read-out: AC50): 15.8 µM (inconclusive)
AC50 (Cytochrome P450 3A4): 25.1 µM (inconclusive)

CN(C(=O)COc1cccc(Br)c1)C1CCS(=O)(=O)C1 (configuration not stated)
AC50 (Cytochrome P450 2C19; read-out: AC50): 22.4 µM (inconclusive)

Clc1ccc(Cl)c(OCCCCN2CCNCC2)c1
AC50 [1]: 2.41 µM (active)
EC50 [2]: 3.42 µM (active)
EC50 [3]: 9.24 µM (active)

O=C(NC1(Cc2ccccc2)CCN(CCCc2ccccc2)C1=O)c1ccccc1 (configuration not stated)
AC50 (INS1): 2.75 µM (active)

CC(=O)NCCNc1nc(-c2ccc3c(c2)OCO3)nc2ccccc12
AC50 (Cytochrome P450 2C19; read-out: AC50): 39.8 µM (inconclusive)

CN(C)c1ccc(/C=C(\C#N)C(=O)OCC(=O)N(C)C2CCS(=O)(=O)C2)cc1 (configuration not stated)
AC50 (INS1): > 260 µM (inactive)

COc1ccccc1N1CCNCC1
AC50 (Cytochrome P450 2C19): inconclusive

Cc1ccc(/C=N/NC(=O)CNC(=O)COc2ccccc2)o1
AC50 [1]: > 195 µM (inactive)

Nc1ccc(N2CCN(Cc3ccccc3Cl)CC2)c(Cl)c1
AC50 [1]: 2.45 µM (active)

C=C[C@]1(C)C[C@H](OC(=O)CO)[C@]2(C)C3C(=O)CC[C@]3(CC[C@H]2C)[C@H](C)[C@H]1O (some centres not stated)
AC50 (Cytochrome P450 3A4): 3.16 µM (inconclusive)

Cc1nc2cnc(N3CCNCC3)nc2n(Cc2cccs2)c1=O
AC50 (Cytochrome P450 2D6): 12.6 µM (inconclusive)

CCOc1cc(N2CCOCC2)c(OCC)cc1NC(=O)c1ccc(C)s1
IC50 [4]: 70.8 µM (active)

O=S(=O)(c1cccc(-c2nnc(-c3ccc(Br)cc3)o2)c1)N1CCCCCC1
AC50 (Cytochrome P450 2C19; read-out: AC50): 11.2 µM (inconclusive)

Cc1cc(Cl)cc2sc(S)nc12
IC50 [4]: 85.4 µM (active)

O=C(CNC(=O)c1ccco1)N/N=C/c1ccc(O)cc1O
IC50 [4]: 104 µM (active)

Cn1c([N+](=O)[O-])cnc1CN1CCN(CCO)CC1
AC50 (Cytochrome P450 2C19): inconclusive

COc1ccc(CN2CCN(C(=O)C3CCC(CNS(=O)(=O)c4ccc(C)cc4)CC3)CC2)c(OC)c1OC (configuration not stated)
EC50 [2]: 0.404 µM (active)
EC50 [3]: > 60 µM (not active)

Cc1ccnc(Nc2nc(-c3ccc(O)cc3)cs2)c1
IC50 [4]: 105 µM (active)

O=c1c2ccccc2[nH]c(=S)n1CCCN1CCC(Cc2ccccc2)CC1
EC50 [2]: 0.161 µM (active)
EC50 [3]: > 60 µM (not active)

CCCCCc1nc2c(C#N)c(-c3ccc(Cl)cc3)ccn2n1
AC50 (Cytochrome P450 3A4): 25.1 µM (inconclusive)

c1ccc(Nc2cccc3c(Nc4ccccc4)cccc23)cc1
EC50 [2]: 1.14 µM (active)
EC50 [3]: > 60 µM (not active)

COCCCn1c(=N)c(C(N)=S)cc2c(=O)n3cccc(C)c3nc21
EC50 [2]: 1.34 µM (active)
EC50 [3]: > 60 µM (not active)

NC(=O)CC(NC(=O)c1ccc(Br)cc1)c1ccc(N2CCCCCCC2)c([N+](=O)[O-])c1 (configuration not stated)
AC50 [1]: 8.2 µM (active)

COc1cc(C(C)n2nnc3ccccc32)ccc1O (configuration not stated)
IC50 [4]: 108 µM (active)

CCNS(=O)(=O)c1ccc(NC(=O)c2cc(C(F)(F)F)nn2C)cc1
AC50 (Cytochrome P450 3A4): 6.31 µM (inconclusive)

O=C(NCCCN1CCCC1=O)c1ccc([N+](=O)[O-])s1
EC50 [2]: 0.534 µM (active)
EC50 [3]: > 30 µM (not active)

CCC(=O)Nc1nc(C)c(-c2csc(Nc3cccc(O)c3)n2)s1
AC50 [1]: 0.188 µM (active)

CC(=O)c1ccc(NC(=O)C(Cc2ccccc2)NC(=O)c2ccco2)cc1 (configuration not stated)
AC50 (Cytochrome P450 3A4): 28.2 µM (inconclusive)

COc1cc(C)ccc1OCCOc1cc(C)ccc1Cl
AC50 (Cytochrome P450 2C19; read-out: AC50): 5.62 µM (inconclusive)

COc1cccc(C(=O)N(C)c2nnc(-c3ccncc3)s2)c1
AC50 (Cytochrome P450 3A4): 6.31 µM (inconclusive)

Cc1ccc(NC(=O)NCC2CCN(Cc3cccc(Cl)c3)CC2)cc1Cl
AC50 (INS1): 12.8 µM (active)
AC50 [1]: 8.54 µM (active)
EC50 [2]: 1.03 µM (active)
EC50 [3]: > 60 µM (not active)

CCC1CCCCN1Cc1cc(OC)c(O)c([N+](=O)[O-])c1 (configuration not stated)
AC50 (Cytochrome P450 2D6): 14.1 µM (inconclusive)

O=C(Nc1ncc(S(=O)(=O)c2ccc([N+](=O)[O-])cc2)s1)c1ccc2ccccc2c1
AC50 [1]: 2.11 µM (active)
EC50 [2]: 0.128 µM (active)
EC50 [3]: > 60 µM (not active)

Cc1[nH]n(C(C)(C)C)c(=O)c1Sc1ccc(Cl)cc1
EC50 [2]: 16.3 µM (active)
EC50 [3]: > 60 µM (not active)

CCCCCCOc1ccc(OC(=O)c2cccnc2)cc1
AC50 [1]: 3.33 µM (active)

From ChEMBL document CHEMBL1201862, “PubChem BioAssay data set” (2004)
